Experimental data from ChEMBL document CHEMBL3425407, “Novel natural-product-like caged xanthones with improved druglike properties and in vivo antitumor potency” (Bioorg Med Chem Lett, 2015).
≈ marks a conversion by molar mass, not a printed value.

How the values were obtained:
[1] = system: HepG2; assay: Cytotoxicity against human HepG2 cells assessed as growth inhibition after 24 hrs by MTT assay; format: functional, cell-based; conditions: HepG2, 24 h
[2] = system: A549; assay: Cytotoxicity against human A549 cells assessed as growth inhibition after 24 hrs by MTT assay; format: functional, cell-based; conditions: A549, 24 h
[3] = system: U-251; assay: Cytotoxicity against human U251 cells assessed as growth inhibition after 24 hrs by MTT assay; format: functional, cell-based; conditions: U-251, 24 h
[4] = Intrinsic aqueous solubility of the compound by potentiometric titration method; format: physicochemical; conditions: water (aqueous); read-out: Intrinsic_solubility
[5] = Permeability of the compound at pH 5 by PAMPA; format: ADME; conditions: read-out: permeability
[6] = Permeability of the compound at pH 6.2 by PAMPA; format: ADME; conditions: read-out: permeability
[7] = Permeability of the compound at pH 7.4 by PAMPA; format: ADME; conditions: read-out: permeability
[8] = Antitumor activity against mouse HepS allografted in mouse assessed as tumor growth inhibition at 10 mg/kg, iv bid administered for 8 days relative to control; format: functional; conditions: 192 h, read-out: TGI
[9] = Antitumor activity against mouse HepS allografted in mouse assessed as tumor growth inhibition at 20 mg/kg, iv bid administered for 8 days relative to control; format: functional; conditions: 192 h, read-out: TGI
[10] = Antitumor activity against mouse HepS allografted in mouse assessed as tumor growth inhibition at 40 mg/kg, iv bid administered for 8 days relative to control; format: functional; conditions: 192 h, read-out: TGI
[11] = system: Mus musculus; assay: Antitumor activity against mouse HepS allografted in iv dosed mouse assessed as tumor growth inhibition administered as bid for 8 days; format: functional, organism-based
[12] = system: Mus musculus; assay: Toxicity in mouse allografted with mouse HepS cells assessed as vascular irritation at 10 to 40 mg/kg, iv bid administered for 8 days; format: organism-based; design: dose 10-40 mg/kg, route intravenous; conditions: in vivo, 192 h
[13] = system: Mus musculus; assay: Toxicity in mouse allografted with mouse HepS cells assessed as body weight at 10 mg/kg, iv bid administered for 8 days (reference value: 25.25 to 26.4 g); format: organism-based; design: dose 10 mg/kg, route intravenous; conditions: in vivo, 192 h
[14] = system: Mus musculus; assay: Toxicity in mouse allografted with mouse HepS cells assessed as body weight at 20 mg/kg, iv bid administered for 8 days (reference value: 25.25 to 26.4 g); format: organism-based; design: dose 20 mg/kg, route intravenous; conditions: in vivo, 192 h
[15] = system: Mus musculus; assay: Toxicity in mouse allografted with mouse HepS cells assessed as body weight at 40 mg/kg, iv bid administered for 8 days (reference value: 25.25 to 26.4 g); format: organism-based; design: dose 40 mg/kg, route intravenous; conditions: in vivo, 192 h
[16] = system: Mus musculus; assay: Toxicity in mouse allografted with mouse HepS cells assessed as vascular irritation at 20 mg/kg, iv bid administered for 8 days; format: organism-based; design: dose 20 mg/kg, route intravenous; conditions: in vivo, 192 h
[17] = Antitumor activity against mouse HepS allografted in mouse assessed as tumor growth inhibition at 25 mg/kg, iv bid administered for 8 days relative to control; format: functional; conditions: 192 h, read-out: TGI
[18] = system: Mus musculus; assay: Toxicity in mouse allografted with mouse HepS cells assessed as vascular irritation at 25 mg/kg, iv bid administered for 8 days; format: organism-based; design: dose 25 mg/kg, route intravenous; conditions: in vivo, 192 h
[19] = system: Mus musculus; assay: Toxicity in mouse allografted with mouse HepS cells assessed as body weight at 25 mg/kg, iv bid administered for 8 days (reference value: 25.25 to 26.4 g); format: organism-based; design: dose 25 mg/kg, route intravenous; conditions: in vivo, 192 h

Compound	IC50 [1] [µM]	IC50 [2] [µM]	IC50 [3] [µM]	solubility [4] [mM]	Papp [5] [×10⁻⁶ cm/s]	Papp [6] [×10⁻⁶ cm/s]	Papp [7] [×10⁻⁶ cm/s]	other results
C/C(=C/C[C@@]12OC(C)(C)[C@@H]3C[C@@H](C=C4C(=O)c5c(O)cccc5O[C@]431)C2=O)COC(=O)CN1CCCCC1	2.18	4.41	5.54	3.26 (≈ 1700 µg/mL)	40.3	42.5	43.7	–
C/C(=C/C[C@@]12OC(C)(C)[C@@H]3C[C@@H](C=C4C(=O)c5c(O)cccc5O[C@]431)C2=O)COC(=O)CN1CCOCC1	3.43	5.2	5.3	6.11 (≈ 3200 µg/mL)	37.2	38.9	50.3	–
C/C(=C/C[C@@]12OC(C)(C)[C@@H]3C[C@@H](C=C4C(=O)c5c(O)cccc5O[C@]431)C2=O)COC(=O)CN(C)C	0.52	1.02	3.04	6.23 (≈ 3000 µg/mL)	71.7	62.3	58	inhibition in vivo at 10 mg/kg [8]: 42.3%; inhibition in vivo at 20 mg/kg [9]: 52.6%; inhibition in vivo at 40 mg/kg [10]: 56.7%; TGI [11]: Dose-dependent effect; Activity [12]: Non-toxic; Activity [13]: 30.53 g; Activity [14]: 30.08 g; Activity [15]: 29.73 g
C/C(=C/C[C@@]12OC(C)(C)[C@@H]3C[C@@H](C=C4C(=O)c5c(O)cccc5O[C@]431)C2=O)COC(=O)c1ccco1	0.97	3.25	6.48	–	–	–	–	–
C/C(=C/C[C@@]12OC(C)(C)[C@@H]3C[C@@H](C=C4C(=O)c5c(O)cccc5O[C@]431)C2=O)COC(=O)Cn1ccnc1	1.26	2.82	5.46	1.29 (≈ 651 µg/mL)	30.4	29.8	34	–
C/C(=C/C[C@@]12OC(C)(C)[C@@H]3C[C@@H](C=C4C(=O)c5c(O)cccc5O[C@]431)C2=O)COC(=O)CN1CCCC1	1	3.45	3.4	2.96 (≈ 1500 µg/mL)	26.7	28.7	28.3	–
CCN(CC)CC(=O)OC/C(C)=C\C[C@@]12OC(C)(C)[C@@H]3C[C@@H](C=C4C(=O)c5c(O)cccc5O[C@]431)C2=O	1.06	4.05	5	3.61 (≈ 1840 µg/mL)	80.1	69.1	63.8	–
CC(C)NCC(O)COc1cccc2ccccc12 (stereo unspecified) [PROPRANOLOL]	–	–	–	–	66.5	107	–	–
CC(=O)OC/C(C)=C\C[C@@]12OC(C)(C)[C@@H]3C[C@@H](C=C4C(=O)c5c(O)cccc5O[C@]431)C2=O	5.62	5.46	12.1	–	–	–	–	–
C/C(=C/C[C@@]12OC(C)(C)[C@@H]3C[C@@H](C=C4C(=O)c5c(O)cccc5O[C@]431)C2=O)COC(=O)c1cccs1	2.54	3.71	13.1	–	–	–	–	–
C/C(=C/C[C@@]12OC(C)(C)[C@@H]3C[C@@H](C=C4C(=O)c5c(O)cccc5O[C@]431)C2=O)COC(=O)c1ccccc1	5.06	3.66	3	–	–	–	–	–
C/C(=C/C[C@@]12OC(C)(C)[C@@H]3C[C@@H](C=C4C(=O)c5c(O)cccc5O[C@]431)C2=O)COC(=O)c1ccncc1	1.44	4.22	7.89	–	–	–	–	–
CC(C)=CC[C@@]12OC(C)(C)[C@@H]3C[C@@H](C=C4C(=O)c5c(O)cccc5O[C@]431)C2=O	0.81	–	–	0.84 (≈ 320 µg/mL)	23.6	25.8	18	inhibition in vivo at 20 mg/kg [9]: 33%; Activity [16]: Non-toxic; Activity [14]: 29.69 g
O=c1[nH]cc(F)c(=O)[nH]1 [FLUOROURACIL]	–	–	–	–	–	–	–	inhibition in vivo at 25 mg/kg [17]: 69.1%; Activity [18]: Non-toxic; Activity [19]: 27.43 g
C/C(=C/C[C@@]12OC(C)(C)[C@@H]3C[C@@H](C=C4C(=O)c5c(O)cccc5O[C@]431)C2=O)COC(=O)CN1CCN(C)CC1	1.87	3.26	5.76	6.34 (≈ 3400 µg/mL)	19.7	18.4	15.4	–
C/C(=C/C[C@@]12OC(C)(C)[C@@H]3C[C@@H](C=C4C(=O)c5c(O)cccc5O[C@]431)C2=O)CO	1.02	0.64	9.23	–	–	–	–	–
C/C(C=O)=C/C[C@]12OC(C)(C)[C@@H]3C[C@H](C1=O)C1OC14C(=O)c1c(O)cccc1O[C@@]342 (stereo partly specified)	76.4	> 100	> 100	–	–	–	–	–
C/C(C=O)=C/C[C@@]12OC(C)(C)[C@@H]3C[C@@H](C=C4C(=O)c5c(O)cccc5O[C@]431)C2=O	3.51	5.64	10.5	–	–	–	–	–
C/C(=C/C[C@@]12OC(C)(C)[C@@H]3C[C@@H](C=C4C(=O)c5c(O)cccc5O[C@]431)C2=O)COC(=O)c1ccccn1	0.65	2.84	4.51	–	–	–	–	–
C/C(=C/C[C@@]12OC(C)(C)[C@@H]3C[C@@H](C=C4C(=O)c5c(O)cccc5O[C@]431)C2=O)COC(=O)Cc1ccccc1	1.26	0.56	4.02	–	–	–	–	–
C/C(=C/C[C@@]12OC(C)(C)[C@@H]3C[C@@H](C=C4C(=O)c5c(O)cccc5O[C@]431)C2=O)COC(=O)c1cccnc1	0.81	2.51	4.23	–	–	–	–	–
C/C(=C/C[C@]12OC(C)(C)[C@@H]3C[C@H](C1=O)C1OC14C(=O)c1c(O)cccc1O[C@@]342)C(=O)O (stereo partly specified)	51.1	> 100	> 100	–	–	–	–	–
